Results as given in patent US11578013B2, “Nitrification inhibitors” (Lincoln University, priority 2020, dated 2023).
Values after ≈ are worked out from the molar mass of the structure shown.

Legend:
[1] = tested on: Nitrosomonas europaea; assay: In vitro screening of nitrite production by Nitrosomonas europaea; type: cell-based
Method: The phenotypic screening involved assessing the nitrification inhibition potency of the selected 5000 compounds against a key ammonia oxidizing bacterium responsible for ammonia oxidation in the soil, Nitrosomonas europaea, in 96-well microtiter plates. N. europaea cells were grown in the presence of an ammonium source, and the potential of putative nitrification inhibitors to inhibit the production of nitrite (NO2) was measured relative to untreated cells. […] Study 1-14

[2] = tested on: N. europaea cells; assay: Oxygen consumption rate of N. europaea whole cells (Oroboros oxygraph); type: cell-based, Nitrosomonas europaea; details: 25° C.
Method: To begin to understand the mechanism of action of 4-Ethynylanisole the oxygen consumption rate was measured utilising an Oroborus oxygraphy-2k (Oroboros Instruments). Prior to the experiment, N. europaea cells were grown in ATCC 2265 medium for four days. After which time whole cells of N. europaea were washed extensively as previously described and re-suspended in ATCC 2265 wash buffer (no ammonium) to an OD600 of 0.25. Prior to each experiment being initiated by the addition of a metabolizable energy source (ammonium or hydroxyl amine), the oxygen concentration in the assay suspension (2 ml of cells at OD600 of 0.25) was equilibrated for 2-3 min with air until a stable signal was obtained. Under normal experimental conditions this typically yielded an oxygen concentration of approximately 220 μM. After the oxygen concentration had stabilised in the Oroborus oxygraphy-2k reaction cell, rubber stoppers were subsequently inserted to enclose the system. To initiate respiration, ammonium sulphate (12.5 mM) or hydroxyl amine (6.25 mM) were injected directly into washed cell suspension of N. europaea. […] All measurements were made at 25° C. with stirring at 750 rpm and a data recording interval of 1 s^−1.

IC50 ([1]; Nitrosomonas europaea, read-out: IC50 (nitrite production reduced by half)): 2.4 µM | MIC ([1]; Nitrosomonas europaea, read-out: Minimum Inhibitory Concentration (MIC) of nitrite production): 25 to 50 µM (≈ 3.3 to 6.61 µg/mL)
Compound: C#Cc1ccc(OC)cc1 [4-Ethynylanisole, 1-ethynyl-4-methoxybenzene]
rate of nitrite production (OD519 nm) ([1]; 1.56 μM to 400 μM): significantly reduced | ammonium-driven oxygen consumption ([2]; ammonium sulphate 12.5 mM): reduced to zero | hydroxylamine (H3NO)-driven oxygen consumption ([2]; hydroxyl amine 6.25 mM): not affected
